Experimental data: publication PMC12134986, “Synthesis, characterization and antidiabetic studies of novel amantadine-derived Schiff base (AHB) and its Zn(II), Co(II), Cr(III) and VO(IV) complexes” (RSC Advances, 2025)

Assays:
α-glucosidase = test: In vitro α-glucosidase inhibitory activity (pNPG substrate, absorbance at 405 nm); format: biochemical
Description: After the pre-incubation, pNPG (substrate, 30 μL, 5 mM) prepared in 0.1 M phosphate buffer (pH 6.8) was poured into the wells of the microplate, which were then incubated at 37 °C for 20 minutes. […] For inhibition studies, various concentrations of test samples were utilized. […] All data were presented as means ± SD values, obtained from a microplate reader for all experiments.

α-amylase = test: In vitro α-amylase inhibition activity (starch-iodine, 580 nm); format: biochemical
Description: In vitro α-amylase inhibition studies were performed following a reported methodology with slight modification.[20] First, to prepare our reaction mixture, 10 μL of enzyme solution (0.1 mg mL^−1) was combined with a 10 mM phosphate buffer at pH 6.9 (6 mM NaCl), and then mixed with the various concentrations of the tested sample. The resultant reaction mixtures placed in a microplate were incubated for 30 minutes at 37 °C. After the incubation period, 40 μL of starch solution (1%) was added; subsequently, this assay plate was incubated at 37 °C for 10 minutes. Finally, the reaction was terminated by adding 20 μL of 1.0 M HCl to the prepared solution, followed by the addition of 75 μL of iodine solution. Quantification was performed spectrophotometrically at 580 nm. […] Inhibition activity (%) was measured using eqn (1).1 [drawing 1] Here, the control sample excluded the α-amylase and the tested sample. The inhibitor concentration used to inhibit α-amylase activity (50%) under assay was determined as IC50 values. The findings were depicted as means ± SD values, obtained from microplate readers.

## (E)-2-((adamantan-2-ylimino)methyl)-6-bromo-4-chlorophenol [AHB]
α-glucosidase
  α-glucosidase inhibition, result in words: relatively inactive
α-amylase
  α-amylase inhibition, result in words: relatively inactive
